In the supplement of paper PMC10307832:

Columns and labels:
Test in all cases: relative viability (nuclei count vs DMSO), 5 days (fraction); higher = more cells survive
Crenolanib + Palbociclib = compound: CC1(COc2ccc3c(c2)ncn3-c2ccc3cccc(N4CCC(N)CC4)c3n2)COC1 [Crenolanib] + CC(=O)c1c(C)c2cnc(Nc3ccc(N4CCNCC4)cn3)nc2n(C2CCCC2)c1=O [Palbociclib] (partner 0.5 µM)
Method in brief: (§1)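 Lung cancer cell lines, seeded in 1536-well plates, were treated the following day by pin tool with a single drug or with five library-drug doses (not always all listed) in √10 steps on top of a fixed anchor-drug dose. Cells were fixed and nuclei stained in one step after 5 days, and nuclei were counted. Relative viability is the nuclei count for treated wells divided by that for vehicle wells, reported as medians of duplicate plates.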

Tivantinib + Palbociclib = compound: O=C1NC(=O)[C@@H](c2cn3c4c(cccc24)CCC3)[C@@H]1c1c[nH]c2ccccc12 [Tivantinib] + CC(=O)c1c(C)c2cnc(Nc3ccc(N4CCNCC4)cn3)nc2n(C2CCCC2)c1=O [Palbociclib] (partner 0.5 µM)
Method in brief: as §1

Crenolanib + AZD7762 = compound: CC1(COc2ccc3c(c2)ncn3-c2ccc3cccc(N4CCC(N)CC4)c3n2)COC1 [Crenolanib] + NC(=O)Nc1cc(-c2cccc(F)c2)sc1C(=O)N[C@H]1CCCNC1 [AZD7762] (partner 0.2 µM)
Method in brief: as §1

Crenolanib + Luminespib = compound: CC1(COc2ccc3c(c2)ncn3-c2ccc3cccc(N4CCC(N)CC4)c3n2)COC1 [Crenolanib] + CCNC(=O)c1noc(-c2cc(C(C)C)c(O)cc2O)c1-c1ccc(CN2CCOCC2)cc1 [Luminespib] (partner 0.01 µM)
Method in brief: as §1

Cell Line | relative viability (Crenolanib + Palbociclib; first compound 0.01 µM) | relative viability (Crenolanib + Palbociclib; first compound 0.03162 µM) | relative viability (Crenolanib + Palbociclib; first compound 0.1 µM) | relative viability (Crenolanib + Palbociclib; first compound 0.3162 µM) | relative viability (Crenolanib + Palbociclib; first compound 1 µM) | relative viability (Tivantinib + Palbociclib; first compound 0.01 µM) | relative viability (Tivantinib + Palbociclib; first compound 0.03162 µM) | relative viability (Tivantinib + Palbociclib; first compound 0.1 µM) | relative viability (Tivantinib + Palbociclib; first compound 0.3162 µM) | relative viability (Crenolanib + AZD7762; first compound 0.01 µM) | relative viability (Crenolanib + AZD7762; first compound 0.03162 µM) | relative viability (Crenolanib + AZD7762; first compound 0.1 µM) | relative viability (Crenolanib + AZD7762; first compound 0.3162 µM) | relative viability (Crenolanib + AZD7762; first compound 1 µM) | relative viability (Crenolanib + Luminespib; first compound 0.01 µM) | relative viability (Crenolanib + Luminespib; first compound 0.03162 µM) | relative viability (Crenolanib + Luminespib; first compound 0.1 µM) | relative viability (Crenolanib + Luminespib; first compound 0.3162 µM) | relative viability (Crenolanib + Luminespib; first compound 1 µM)
HCC-78 | 0.451 | 0.434 | 0.416 | 0.479 | 0.428 | 0.49 | 0.445 | 0.448 | 0.426 | 0.629 | 0.619 | 0.733 | 0.477 | 0.567 |  |  |  |  | 
HOP-62 | 0.457 | 0.45 | 0.461 | 0.497 | 0.481 | 0.454 | 0.399 | 0.425 | 0.466 | 0.618 | 0.709 | 0.668 | 1.1 | 0.75 | 0.944 | 0.89 | 0.859 | 0.93 | 0.813
NCI-H1623 |  |  |  |  |  |  |  |  |  |  |  |  |  |  | 0.582 | 0.41 | 0.457 | 0.633 | 0.357
NCI-H2405 | 0.584 |  | 0.39 | 0.541 | 0.539 | 0.565 | 0.584 | 0.486 | 0.536 | 0.801 |  | 0.554 | 0.773 | 0.646 | 0.786 | 0.83 |  | 0.641 | 0.594
PC-3 [JPC-3] | 0.563 |  | 0.543 | 0.534 | 0.568 | 0.482 | 0.6 | 0.508 | 0.491 | 0.761 |  | 0.832 | 0.78 | 0.752 | 0.806 | 0.761 | 0.676 | 0.742 | 0.71
NCI-H1666 | 0.657 | 0.678 | 0.594 | 0.63 | 0.694 | 0.691 | 0.596 | 0.66 | 0.681 | 0.928 | 0.831 | 0.761 | 0.905 | 0.889 | 1.07 | 1.11 | 0.991 | 0.977 | 1.03
HCC-15 | 0.721 | 0.702 | 0.755 | 0.526 | 0.66 | 0.724 | 0.761 | 0.638 | 0.852 | 1.07 | 1.15 | 0.961 | 0.607 | 1.17 | 0.276 | 0.408 | 0.355 | 0.315 | 0.302
NCI-H1651 | 0.531 | 0.518 | 0.516 | 0.522 | 0.495 | 0.518 | 0.461 | 0.495 | 0.424 | 0.49 | 0.399 | 0.434 | 0.472 | 0.558 | 0.867 | 0.926 | 0.711 | 0.875 | 0.748
NCI-H1395 | 0.622 | 0.628 | 0.677 | 0.635 | 0.628 | 0.708 | 0.625 | 0.632 | 0.527 | 0.374 | 0.392 | 0.412 | 0.457 | 0.473 | 0.686 | 0.803 | 0.698 | 0.763 | 0.58
EPLC-272H | 0.336 | 0.299 | 0.305 | 0.339 | 0.313 | 0.298 | 0.323 | 0.308 | 0.273 | 0.207 | 0.238 | 0.376 | 0.289 | 0.251 | 0.371 | 0.574 | 0.366 | 0.168 | 0.319
